The values below come from a melting point compilation (Tetko et al.; mined from patent text by program, amines drawn as free bases though some values may be those of a salt).

Consider `O=C(Nc1ccc(OC(F)(F)F)cc1)NC1CCN(C(=O)c2ccc(Cl)nc2)CC1`, for which the melting point (commonly the temperature, or range, at which the solid turns liquid) lay within 208 to 209 °C.

In turn, `CNC(=O)c1cccc(Cl)c1Nc1nc(Nc2ccc3c(c2)CCC(N2CCC(N4CCN(C)CC4)CC2)CC3)ncc1Cl` (stereo not drawn) returned a melting point of 171 to 175 °C.

Turning to `Cc1ccc(C(CCN2CCCC2)c2ncc[nH]2)cc1` (stereo not drawn), the melting point fell in the range of 125 to 127 °C.

The compound `CN1C(=O)C(F)N=C(c2ccccc2Cl)c2cc(Cl)ccc21` (stereo not drawn) showed a melting point of 204 to 205 °C.

In the case of `O=C(O)c1cccc(C(c2cc(F)ccc2F)S(=O)(=O)c2ccc(Cl)cc2)n1` (stereo not drawn), the melting point is 200 to 201 °C.

On to `Cc1cc(NN)nc(-c2ccncc2)n1`, for which the melting point fell in the range of 150 to 152 °C.

For `Nc1nc(NCC(c2ccccc2)c2ccc(F)cc2)c2ncn(C3OC(CO)C(O)C3O)c2n1` (stereo not drawn), the melting point lay in the range of 127 to 130 °C.

The compound `O=C1c2cccc3cc4ccccc4c(c23)C(=O)N1CCCNCCCNCCCN1C(=O)c2cccc3cc4ccccc4c(c23)C1=O` returned a melting point of 140 °C.

As for `CCOC(=O)C(=O)Nc1cc(C#N)cc(NC(=O)C(=O)OCC)c1`, the melting point was 189 to 190 °C.

With `Cc1ccc(S(=O)(=O)NC(=O)OCCc2ccc(-n3c(C(C)(C)C)nc4c(C)nc(C)cc43)cc2)cc1`, the melting point was found to be 226 °C.

The compound `CCOC(=O)c1cn(C(c2ccccc2)(c2ccccc2)c2ccccc2)cn1` gave a melting point of 163 to 164 °C.

On to `COC(=O)c1ccc(S(C)(=O)=O)c(OS(=O)(=O)C(F)(F)F)c1Cl`, for which the melting point stood at 69 °C.

On to `[N-]=[N+]=Nc1ccc(C(=O)NCCCC[C@@H](C(=O)O)n2c3ccccc3c3ccccc32)cc1`, for which the melting point is 98 to 100 °C.

`CCCCOc1ccc(C(=O)NC[C@@H](C(=O)NO)N2CCN(S(C)(=O)=O)CC2)cc1` returned a melting point of 130 °C.

`CCCCCC/C(=C\c1ccccc1)C1O[C@@H](C(=O)OC)[C@H](C(=O)OC)O1`: the melting point lay in the range of 49 to 50 °C.

Take `CCOC(=O)Cn1cc(Cc2cccc([N+](=O)[O-])c2)c2ccccc21`: the melting point was 163 to 165 °C.

Turning to `COc1cc(O)c(C(=O)C=Cc2ccccc2)c(OC)c1`, the melting point turned out to be 85.5 °C.

On to `CC(=O)Oc1c(C)c(C)c2c(c1C)CC(C)(C=O)O2` (stereo not drawn), for which the melting point is 78 to 79 °C.

Regarding `Nc1nc(CCc2ccccc2)nc2oc(-c3ccco3)nc12`, the melting point fell in the range of 206 to 208 °C.

The compound `CCOC(=O)Cc1ccc(-c2ccc3c(=O)c(C(=O)NC)c(N)n(CC)c3n2)cc1` returned a melting point of 195 °C.

Regarding `CNC(=O)C(C)n1cc(C)c(-c2ccccc2)n1` (stereo not drawn), the melting point lay in the range of 111 to 112 °C.

`COc1ccc2[nH]cc(SCCN=C3CCCN3C)c2c1` registered a melting point of 154 to 157 °C.

In the case of `Clc1cnc(N2CCNCC2)c(Cl)n1`, the melting point fell in the range of 89 to 97 °C.

In turn, `Cc1nnc(-c2ccc3occ(-c4cnn(Cc5ccccc5)c4)c3c2)o1` yielded a melting point of 151 to 152 °C.

In turn, `CC(=O)NC[C@H]1CN(c2cc(F)c(N3CCC(Cc4nnn[nH]4)CC3)c(F)c2)C(=O)O1` yielded a melting point of 176 to 178 °C.

`OC[C@@H]1CC[C@H]2CN(c3ncc(F)cn3)CCN2C1` yielded a melting point of 148 to 150 °C.

Turning to `O=C(C1CCC1)N1C[C@@H](c2c[nH]c3ccccc23)[C@H](c2cn3c4c(cccc24)CCC3)C1`, the melting point lay in the range of 253 to 255 °C.

`CCCCCCCCCCCCCC(=O)NCCCSc1ccncc1` returned a melting point of 80 to 81 °C.

The compound `CC(=O)NCCNC(=O)CCCCC1CCSS1` (stereo not drawn) displayed a melting point of 145 to 146 °C.

Turning to `O=C(c1ccc(I)cc1)c1cc2c3c(c1)c(-c1cccc(Cl)c1)cc(=O)n3CC2`, the melting point is 202 °C.

Consider `CCOC(=O)c1cc(F)c(SC)nc1NC1CC1`, for which the melting point is 67 to 69 °C.

`CC(=O)c1ccc(C(=O)NCCOc2ccc3ccccc3c2)cc1` showed a melting point of 131 to 132 °C.

Regarding `CCCCCCCCN(Cc1ccc(CN(CCCCCCCC)OC(=O)c2ccccc2)cc1)OC(=O)c1ccccc1`, the melting point fell in the range of 80 to 81 °C.

The compound `CCC(CC)Oc1cc(C)nc(Nc2c(C)cc(C)cc2C)c1N` yielded a melting point of 73 to 75 °C.

Regarding `O=C(c1ccc(S(=O)(=O)c2ccc3cc(Cl)ccc3c2)cc1)N1CCN(c2ccncc2)CC1`, the melting point was in the range of 267 to 269 °C.

Take `O=C1C(=CNCCO)Cc2c(Cl)cccc21`: the melting point lay in the range of 164 to 166 °C.

With `Cn1nc(-c2ccc(Cl)cc2)nc1-c1ccncc1`, the melting point is 191 °C.

Consider `CCC(COC)(OC)c1cc(F)cc(OCc2ccccc2)c1` (stereo not drawn), for which the melting point was 61 to 62 °C.

On to `CCNC(=O)c1c([Si](C)(C)C)ccc(C(=O)OC)c1Cl`, for which the melting point was in the range of 103 to 104 °C.

`CN1CCCC1=NC(=O)Nc1ccc(Cl)c(Cl)c1` showed a melting point of 160 °C.

In turn, `COC(=O)c1ccc(OCC2CO2)cc1O` (stereo not drawn) registered a melting point of 53 to 55 °C.

Compound `CCc1oc2ccccc2c1C(=O)N(C)Cc1ccc2cc(O)ccc2c1` showed a melting point of 80 to 90 °C.

For the compound `COCc1nc2c3c(ccn2c1C)[C@@H](O)[C@H](O)[C@@H](c1ccccc1)N3`, the melting point lay in the range of 102 to 104 °C.

Regarding `C(=C(\C(=C\c1ccccc1)c1ccccc1)c1ccccc1)/c1ccccc1`, the melting point lay in the range of 183 to 184 °C.

The compound `CC(C)=CCOc1ccc(OCC=C(C)C)c(C(=O)NCCc2ccncc2)c1` came in with a melting point of 92.7 to 93.5 °C.

In the case of `CC(Cc1c[nH]c2ccccc12)NC(=O)Oc1ccccc1` (stereo not drawn), the melting point fell in the range of 89 to 92 °C.

The compound `CCOC(=O)c1c(Nc2ccc(F)cc2[N+](=O)[O-])sc2c1CCCC2` yielded a melting point of 140 to 142 °C.

`O=C(O)CCCCCCCCn1nc(-c2ccccc2)c(-c2ccccc2)cc1=O` yielded a melting point of 100 to 103 °C.

Compound `CCCn1c(=O)n2cnnc2c2c1ncn2C` registered a melting point of 218 °C.

In the case of `CC1(CN2CCN(C(=O)OCc3ccccc3)CC2)Cn2cc([N+](=O)[O-])nc2O1` (stereo not drawn), the melting point was in the range of 130 to 132 °C.

`CCOc1cc(C)ccc1C1CCN(CCCCNC(=O)c2ccc(C=Cc3ccc(C(F)(F)F)cc3)cc2)CC1` came in with a melting point of 210 °C.

Take `O=C(O)CCCCCCCCc1ccc(O)cc1`: the melting point fell in the range of 103 to 105 °C.

The compound `CSc1cc(Oc2cccc(C(F)(F)F)c2)nc(C(=O)Nc2ccccc2)c1` had a melting point of 115 to 119 °C.

As to `O=C(O)c1cc(-c2ccc(Br)cc2)nc(-c2ccc(Br)cc2)c1`, the melting point lay in the range of 292 to 294 °C.

In turn, `O=C1c2ccccc2-c2c1c(Cl)nc1cc(OCc3ccccc3)ccc21` registered a melting point of 212 to 214 °C.

As for `O=C(O)c1ccc2sc3ccccc3c(=O)c2c1`, the melting point was 310 to 316 °C.

Consider `CCOC(=O)C1N=C(c2ccccc2)c2cc(Cl)ccc2NC1=O` (stereo not drawn), for which the melting point is 244 °C.

In turn, `Cc1cc(F)ccc1-c1ccc(S(=O)(=O)N2c3ccccc3CC2C(=O)NCCOc2ccc(CC(=O)O)cc2)cc1` (stereo not drawn) displayed a melting point of 99 to 105 °C.

`O=c1cc(CCO)c2ccccc2[nH]1` had a melting point of 213 to 215 °C.

On to `COC(=O)C(=Cc1cc(OC)cc(OC)c1)c1ccc(Oc2ccc(CC3SC(=O)NC3=O)cc2)cc1` (stereo not drawn), for which the melting point was in the range of 65 to 66 °C.

`CON(CCCCn1c(C)nc2c(N)nc3ccccc3c21)C(N)=O` had a melting point of 158 to 160 °C.

As for `Cc1cc2c(Cl)c3ccccc3c(C=O)c2cc1C`, the melting point lay within 150 to 153 °C.

Compound `S=C(Nc1cccc(Cl)c1)N1CCSC1=Nc1cccc(Cl)c1` registered a melting point of 121 to 123 °C.

For `COc1cc2ncc(C#N)c(Cl)c2cc1[N+](=O)[O-]`, the melting point was 214 to 215 °C.

In turn, `CC(C)c1c(O)ccc2cnc(Nc3ccccc3)nc12` registered a melting point of 103 to 104 °C.

The compound `COc1cc2ncc(C#N)c(Nc3cc(C)c(O)c(C)c3)c2cc1OC` showed a melting point of 234 to 236 °C.

`OC(CCCl)COc1ccccc1` (stereo not drawn): the melting point was in the range of 52 to 54 °C.

For `CC1=C(C(=O)OC(C)C)C(c2ccccc2F)n2nncc2N1` (stereo not drawn), the melting point fell in the range of 137 to 139 °C.

Consider `CC(NC(=S)NCC(COC(=O)C(C)(C)C)Cc1ccc(C(C)(C)C)cc1)c1ccc(NS(C)(=O)=O)cc1` (stereo not drawn), for which the melting point was 87 °C.

As for `Cc1ccc(Cn2nc(CCl)cc2-c2ccc(Cl)c(Cl)c2)cc1Cl`, the melting point amounted to 88 °C.

`O=C(CNC(=O)c1ccc(C(=O)C=C(c2cc(Cl)cc(C(F)(F)F)c2)C(F)(F)F)c2ccccc12)NCC(F)(F)F`: the melting point fell in the range of 174 to 177 °C.

Regarding `Clc1ccc(-c2coc3c(Br)cccc23)cc1Cl`, the melting point was in the range of 158 to 160 °C.

Turning to `Cc1cc2ccc(Cl)c(C(=O)O)c2nc1C(F)(F)F`, the melting point was in the range of 186 to 188 °C.

As for `CC(=O)c1ccc(OCCOc2ccc3ccccc3c2)c(Cl)c1`, the melting point lay within 164 to 166 °C.

Consider `CCC(CC)Sc1cc2c(cc1Cl)N=C(CCl)NS2(=O)=O`, for which the melting point is 213 to 214 °C.

Take `Cc1nc2cccc(S(=O)(=O)n3c(COC(C)(C)C(=O)O)cc4cc(C(F)(F)F)ccc43)c2s1`: the melting point fell in the range of 98 to 100 °C.

In turn, `CCCOc1ccc(S(=O)(=O)N2CCN(C(C)=O)CC2)c(-c2nc3cc(N)c(N)cc3c(=O)[nH]2)c1` came in with a melting point of 177 to 180 °C.

Compound `ICCCCCCc1ccc(-c2ccccc2)cc1` showed a melting point of 77 to 77.5 °C.

In the case of `O=C(CI)CCc1ccccc1`, the melting point was in the range of 44 to 45 °C.

`CC12CCC(OC(=O)c3ccc(Cl)cc3)CC1=CCC1C2CCC2(C)C(=NO)CCC12` (stereo not drawn) gave a melting point of 167 to 170 °C.

`C[C@@H](CSC(=O)c1ccccc1)C(=O)N1C(=O)N(C)C[C@H]1C(=O)O` registered a melting point of 162 °C.

In the case of `O=c1[nH]c2c(c3nc(-c4ccccn4)nn13)CN(Cc1ccccc1)CC2`, the melting point stood at 290 °C.

In turn, `CCOC(=O)[C@H]1O[C@@H]1C(=O)N[C@H](CNC(=O)c1ccccc1)CC(C)C` registered a melting point of 126 to 129 °C.

The compound `CCOC(=O)COC(=O)c1cc2c(cn1)[nH]c1ccccc12` displayed a melting point of 165 to 168 °C.

The compound `CC(C)(C)Nc1nc(C#N)c(C#N)nc1Cl` displayed a melting point of 169 to 173 °C.

Take `O=S1(=O)NC(C2CCCCC2)Nc2ccc(S(=O)(=O)N3CCCCC3)cc21` (stereo not drawn): the melting point fell in the range of 262 to 264 °C.

Take `O=C(O)Cc1cccc(C=C(C(=O)O)c2nc(-c3ccccc3)c(-c3ccccc3)o2)c1`: the melting point lay within 178 to 182 °C.

`CCCC1=C(C#N)C(c2cccc3nsnc23)c2c[nH]nc2N1` (stereo not drawn) showed a melting point of 195 °C.
